Laboratory results as given in PubChem BioAssay (NCI).
Values joined by “and” are separate entries in the source; they are usually repeats but may differ in a detail not shown here. Equal values may be shown once.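 48-hour exposure; five concentrations; linearly interpolated endpoints. At the GI50, growth is halved. TGI marks complete inhibition of growth.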

Tests used:
Experiment in all cases: inhibition of tumour cell growth, NCI panel, 48 h
[1] = system: SNB-19 CNS
[2] = system: IGROV1 ovarian
[3] = system: SW-620 colon
[4] = system: UO-31 renal
[5] = system: PC-3 prostate
[6] = system: SF-268 CNS
[7] = system: SK-MEL-2 melanoma
[8] = system: MDA-MB-231 breast
[9] = system: NCI-H522 lung
[10] = system: NCI-H23 lung

For `N#C/C(=C\c1c(-c2ccccc2)[nH]c2ccccc12)C(=O)c1ccccc1`, the GI50 [1] was 16.8 µM, the TGI [1] was greater than 100 µM and the GI50 [2] was 2.53 µM. The TGI [2] was 24.2 µM, the GI50 [3] was 2.97 µM and the TGI [3] was greater than 100 µM. The GI50 [4] was 30.5 µM, the TGI [4] was greater than 100 µM and the GI50 [5] was 3.46 µM. It also gave a TGI [5] greater than 100 µM, a GI50 [6] of 5.73 µM and a TGI [6] of 58.9 µM. The GI50 [7] was 35.2 µM, the TGI [7] was greater than 100 µM and the GI50 [8] was 13.2 µM. For the same compound, the TGI [8] was greater than 100 µM, the GI50 [9] was 3.98 µM and the TGI [9] was 32.9 µM. For the same compound, the GI50 [10] was 16 µM and the TGI [10] was greater than 100 µM.

With `C=C1C(=O)OC2/C=C(\CO)CC/C=C(\CO)CC(OC(=O)C(C)C)C12` (stereo not drawn) the TGI [1] was 45.9 µM, the TGI [2] was 33.6 µM and the TGI [3] was 22.9 µM. It also gave a TGI [4] of 27.4 µM, a TGI [5] of 31.1 µM and a TGI [6] of 19.8 µM. For the same compound, the TGI [7] was 30.8 µM, the TGI [8] was 38 µM and the TGI [9] was 4.11 µM. For the same compound, the TGI [10] was 38.5 µM.

For `c1ccc(B2OCC(C3OB(c4ccccc4)OC4COB(c5ccccc5)OC43)O2)cc1` (stereo not drawn), the TGI [1] was greater than 100 µM, the TGI [2] was greater than 100 µM and the TGI [3] was greater than 100 µM. For the same compound, the TGI [4] was greater than 100 µM, the TGI [5] was greater than 100 µM and the TGI [6] was greater than 100 µM. For the same compound, the TGI [7] was greater than 100 µM, the TGI [8] was greater than 100 µM and the TGI [9] was greater than 100 µM. It also gave a TGI [10] greater than 100 µM.

Compound `Clc1cc(-c2ccccc2)nc2ccccc12` has a TGI [1] greater than 100 µM, a TGI [2] greater than 100 µM and a TGI [3] greater than 100 µM. The TGI [4] was greater than 100 µM, the TGI [5] was 84.2 µM and the TGI [6] was greater than 100 µM. The TGI [7] was 38 µM, the TGI [8] was greater than 100 µM and the TGI [9] was 34 µM. It also gave a TGI [10] greater than 100 µM.

Work on `Cc1ncc(C(=O)Nc2ccc(CN3CCN(C)CC3)c(C(F)(F)F)c2)cc1C#Cc1c(N)ncc2ccccc12` yielded a GI50 [1] of 0.591 µM, a TGI [1] of 1.06 µM and a GI50 [2] of 0.208 µM. The TGI [2] was 0.823 µM, the GI50 [3] was 0.227 µM and the TGI [3] was 0.754 µM. For the same compound, the GI50 [4] was 0.46 µM, the TGI [4] was 1.27 µM and the GI50 [5] was 0.461 µM. The TGI [5] was 0.996 µM, the GI50 [6] was 0.448 µM and the TGI [6] was 1.09 µM. For the same compound, the GI50 [7] was 0.545 µM, the TGI [7] was 1.25 µM and the GI50 [8] was 0.163 µM. For the same compound, the TGI [8] was 0.65 µM, the GI50 [9] was 0.46 µM and the TGI [9] was 0.992 µM. It also gave a GI50 [10] of 0.439 µM and a TGI [10] of 1.02 µM.

With `CCOc1nccc2c1nc(-c1nonc1N)n2CC` the GI50 [1] was greater than 25 µM, the TGI [1] was greater than 25 µM and the GI50 [2] was greater than 25 µM. The TGI [2] was greater than 25 µM, the GI50 [3] was greater than 25 µM and the TGI [3] was greater than 25 µM. For the same compound, the GI50 [4] was greater than 18.4 µM, the TGI [4] was greater than 25 µM and the GI50 [5] was greater than 25 µM. For the same compound, the TGI [5] was greater than 25 µM, the GI50 [6] was greater than 25 µM and the TGI [6] was greater than 25 µM. It also gave a GI50 [7] greater than 25 µM, a TGI [7] greater than 25 µM and a GI50 [8] greater than 25 µM. For the same compound, the TGI [8] was greater than 25 µM, the GI50 [9] was 24.7 µM and the TGI [9] was greater than 25 µM. For the same compound, the GI50 [10] was greater than 25 µM and the TGI [10] was greater than 25 µM.

For `Cn1cnc2c(F)c(Nc3ccc(Br)cc3F)c(C(=O)NOCCO)cc21`, the GI50 [1] was 4.37 µM, the TGI [1] was greater than 100 µM and the TGI [2] was greater than 100 µM. The GI50 [3] was 0.029 µM and 0.0449 µM, the TGI [3] was greater than 100 µM and the GI50 [4] was 7.41 µM. It also gave a TGI [4] greater than 100 µM, a GI50 [5] greater than 100 µM and a TGI [5] greater than 100 µM. The GI50 [6] was > 2.05 µM and 50.5 µM, the TGI [6] was greater than 100 µM and the GI50 [7] was 0.0296 µM and 0.0113 µM. The TGI [7] was 0.448 µM and 0.0766 µM, the GI50 [8] was 0.111 µM and 0.837 µM and the TGI [8] was greater than 100 µM. For the same compound, the GI50 [9] was greater than 63.2 µM, the TGI [9] was greater than 100 µM and the GI50 [10] was 0.227 µM and 0.215 µM. For the same compound, the TGI [10] was greater than 100 µM.

Work on `COc1ccc(-c2ccc(-c3ccc(C(=N)N)cn3)o2)cc1Cl` yielded a GI50 [1] of 1.79 µM, a TGI [1] of 3.4 µM and a GI50 [2] of 1.86 µM. For the same compound, the TGI [2] was 3.63 µM, the GI50 [3] was 1.78 µM and the TGI [3] was 3.57 µM. The GI50 [4] was 1.43 µM, the TGI [4] was 2.76 µM and the GI50 [5] was 1.32 µM. For the same compound, the TGI [5] was 2.68 µM, the GI50 [6] was 2.67 µM and the TGI [6] was 8.38 µM. For the same compound, the GI50 [7] was 2.12 µM, the TGI [7] was 3.81 µM and the GI50 [8] was 1.81 µM. The TGI [8] was 3.41 µM, the GI50 [9] was 1.85 µM and the TGI [9] was 3.59 µM. It also gave a GI50 [10] of 1.92 µM and a TGI [10] of 4.04 µM.

With `C=C1C(OC/C=C/COC2O[C@@H]3O[C@@]4(C)CC[C@H]5[C@H](C)CC[C@@H](C2=C)[C@@]35OO4)O[C@@H]2O[C@@]3(C)CC[C@H]4[C@H](C)CC[C@@H]1[C@@]24OO3` (stereo partly drawn) the GI50 [1] was 30.8 µM, the TGI [1] was greater than 100 µM and the GI50 [2] was 1.6 µM. The TGI [2] was greater than 36.6 µM, the GI50 [3] was 0.0863 µM and the TGI [3] was 23.6 µM. The GI50 [4] was 2.23 µM, the TGI [4] was greater than 39.4 µM and the GI50 [5] was less than 0.0141 µM. The TGI [5] was 32.5 µM, the GI50 [6] was 5.87 µM and the TGI [6] was 30.9 µM. The GI50 [7] was 16 µM, the TGI [7] was greater than 100 µM and the GI50 [8] was 11.4 µM. For the same compound, the TGI [8] was 51.3 µM, the GI50 [9] was 5.17 µM and the TGI [9] was 69.6 µM. For the same compound, the GI50 [10] was 0.0708 µM and the TGI [10] was 14.2 µM.

`COc1cc(F)c(/C=C/c2cc(/C=C/c3cc(OC)c(OC)cc3F)n(-c3cc(F)cc(F)c3)n2)cc1OC` was tested, and the GI50 [1] was 2.37 µM, the TGI [1] was 5.52 µM and the GI50 [2] was 4.73 µM. It also gave a TGI [2] of 21.1 µM, a GI50 [3] of 2.44 µM and a TGI [3] of 5.86 µM. The GI50 [4] was 14.1 µM, the TGI [4] was 34.4 µM and the GI50 [5] was 2.66 µM. It also gave a TGI [5] of 8.17 µM, a GI50 [6] of 3.15 µM and a TGI [6] of 13.6 µM. It also gave a GI50 [7] of 3.08 µM, a TGI [7] of 10.3 µM and a GI50 [8] of 2.62 µM. The TGI [8] was 8.86 µM, the GI50 [9] was 1.91 µM and the TGI [9] was 5.47 µM. The GI50 [10] was 2.53 µM and the TGI [10] was 7.15 µM.

`Nc1cc(S(N)(=O)=O)ccc1SSc1ccc(S(N)(=O)=O)cc1N` was tested, and the TGI [1] was greater than 100 µM, the TGI [2] was greater than 100 µM and the TGI [3] was greater than 100 µM. The TGI [4] was greater than 100 µM, the TGI [5] was greater than 100 µM and the TGI [6] was greater than 100 µM. The TGI [7] was greater than 100 µM, the TGI [8] was greater than 100 µM and the TGI [9] was greater than 100 µM. The TGI [10] was greater than 100 µM.

Compound `CC(C)C[C@H](NC(=O)CCn1ccc2ncccc2c1=O)B(O)O` has a GI50 [1] of 32.6 µM, a TGI [1] greater than 100 µM and a GI50 [2] of 36.5 µM. It also gave a TGI [2] greater than 94.3 µM, a GI50 [3] of 4.23 µM and a TGI [3] greater than 45.9 µM. For the same compound, the GI50 [4] was 19.6 µM, the TGI [4] was greater than 100 µM and the GI50 [5] was 35.2 µM. For the same compound, the TGI [5] was greater than 100 µM, the GI50 [6] was 12.6 µM and the TGI [6] was greater than 61.2 µM. It also gave a GI50 [7] of 11 µM, a TGI [7] greater than 79.2 µM and a GI50 [8] of 9.73 µM. For the same compound, the TGI [8] was 46.6 µM, the GI50 [9] was 4.26 µM and the TGI [9] was 25 µM. The GI50 [10] was 14.9 µM and the TGI [10] was greater than 100 µM.

`Cc1ccc(Nc2cc(C)nc(NCCCNc3ccnc4cc(Cl)ccc34)n2)cc1` was tested, and the GI50 [1] was 1.75 µM, the TGI [1] was 3.84 µM and the GI50 [2] was 1.82 µM. For the same compound, the TGI [2] was 3.98 µM, the GI50 [3] was 1.31 µM and the TGI [3] was 2.83 µM. For the same compound, the GI50 [4] was 1.43 µM, the TGI [4] was 2.87 µM and the GI50 [5] was 1.57 µM. It also gave a TGI [5] of 3.79 µM, a GI50 [6] of 1.52 µM and a TGI [6] of 3.14 µM. The GI50 [7] was 1.83 µM, the TGI [7] was 3.34 µM and the GI50 [8] was 1.38 µM. For the same compound, the TGI [8] was 2.87 µM, the GI50 [9] was 1.77 µM and the TGI [9] was 3.37 µM. The GI50 [10] was 1.78 µM and the TGI [10] was 3.63 µM.

In the case of `CC(C)C[C@H](NC(=O)[C@H](Cc1cccc2ccccc12)NS(=O)(=O)c1cccc2cccnc12)B(O)O`, the TGI [1] is reported as greater than 35.3 µM, the GI50 [2] is reported as 0.0331 µM and the TGI [2] is reported as 0.298 µM and 0.301 µM. For the same compound, the GI50 [3] was 0.0015 µM, the TGI [3] was 0.0223 µM and the GI50 [4] was 0.353 µM. For the same compound, the TGI [4] was 1.06 µM, the GI50 [5] was 0.0534 µM and the TGI [5] was 0.817 µM and 0.418 µM. For the same compound, the TGI [7] was 0.095 µM and 0.0833 µM, the TGI [8] was 0.0567 µM and 0.0597 µM and the TGI [9] was 0.0352 µM. For the same compound, the GI50 [10] was 0.00612 µM and the TGI [10] was 0.132 µM and 0.199 µM.
